Results from article PMC12814168, “Fast, Bright, and Reversible Fluorescent Labeling of Rhodamine-Binding Proteins” (Journal of the American Chemical Society, 2025).
pKd: −log10 of the molar value. Values joined by “and” are separate entries in the source; they are usually repeats but may differ in a detail not shown here. Equal values may be shown once. Read-outs that look alike come from different tables or passages of the source.

Legend:
Rho-tag [1] = target: T1, Rho-tag (Chlorobaculum tepidum, UniProt Q8KFZ1, V17Q/Q25R/S33N/E36V/H40T/K51V/F62Y/M64F/S65D/A66M/G67E/E70D/V87I/G107D/D121K/F125Y/D126E/N138A/S152V); assay: Fluorescence polarization with 0.5-20 nM dye (0.5 nM TMR in Figure S6 titrations) and serial protein dilutions in 50 mM HEPES, 50 mM NaCl, pH 7.3 with BSA, 25 °C, N at least 3.; assay type: binding; conditions: SD, n = 3; read-out: K D, other Rho-tag forms and JF549
T1 construct: gene CT0179; His10-TEV, recombinant from E. coli
Protocol: (§1) electroporation buffer, aliquoted (12 x 50 µL) on ice, and used immediately for electroporation with 1–5 µg DNA precipitated DNA. Cells were transferred to pre-chilled 0.2 cm gap electroporation cuvettes (Bio-Rad), and electroporated using a Gene Pulser Xcell (0.54 kV, 25 µF, infinite resistance, exponential decay). Cells were recovered in 2 mL YPDS at 30 °C, shaking for 1 h and afterwards expanded in 100 mL SDCAA at 30 °C for 2 days.
(§2) YSD protein expression, staining and sorting
(§3) SGCAA medium was used for induction and cells were grown at 30 °C, 250 rpm for 20 h. […] Samples were filtered through 5 mL round-bottom tubes with cell strainer caps (Falcon) and analyzed directly by FACS. […]
(§4) PMT voltages were set based on negative controls (no protein expression). Gates were applied for FSC, SSC, and fluorescence; signals >10³ (bilirubin or rhodamine dyes) were considered positive, background ≤10². […]
(§5) regions were amplified via KOD PCR reaction using primers containing unique barcodes (NGS adaptor ligation oligos, Eurofins Genomics) analyzed by NGS sequencing (Illumina technology, Eurofins Genomics). The NGS results were analyzed using a custom-build pipeline as described previously. Alternatively, plasmid DNA was transformation into E.cloni 10G and single colonies were analyzed by Sanger sequencing (Eurofins). […]
(§6) Stopped-flow kinetic fluorescence anisotropy […]
(§7) FA: fluorescence anisotropy, B: max. […]

[2] = Spectral properties: absolute quantum yield, extinction coefficient, brightness; assay type: physicochemical
Protocol: Serially fluorophore dilutions (0 – 3 μM) were prepared in activity buffer in presence or absence […]
Measurements were performed in 200 μL volumes in clear-bottom non-binding […]
recorded on the Spark20M microplate reader (Tecan). Following baseline correction, the absorbance was plotted against the dye concentration and the data were fitted linearly. Path […]
coefficients were calculated via the Lambert-Beer law (Equation 1).
Absolute quantum yields were determined at room temperature using a Hamamatsu Quantaurus-QY spectrometer (C11347 model). Rhodamine dyes (1 μM) were tested with and without excess […]
Samples were prepared in 800 μL glass vials
Quantum yield represent as mean ± standard deviation from three technical replicates. The brightness was thereafter calculated using Equation 5. […]

SiR-tag = target: T2, SiR-tag; assay: Fluorescence intensity titration of dye (not given; JF646 by comparison with the text) with serial protein dilutions, 50 mM HEPES, 50 mM NaCl, pH 7.3 with BSA, 25 °C, n at least 3.; assay type: binding; conditions: SD, n = 3; read-out: KD [M] (Supplementary Table 10, replicates)
T2 construct: 2 + PROSS8 background combined with P57M/F58Y/R60L and G63N/F64K/D65N/M66H; His10-TEV
Excerpt: (§8) Supplementary Table 10 | Characterization of putative SiR-tag variants. variant sequence KD [M] TM [° C]
(§9) Binding affinity determined via fluorescence intensity. *data from single replicate. If not stated otherwise, average data and standard deviation from n ≥ 3 individual replicates. Thermostability (T M) determined via […]
(§10) Supplementary Table 11 | Plasmids deposited on Addgene
(§11) Addgene ID plasmid insert expression organism
(§12) 249667 pcDNA5/FRT/TO H2B-Rho-tag-T2A-mEGFP mammalian cells
(§13) 249668 pcDNA5/FRT/TO H2B-SiR-tag-T2A-mEGFP mammalian cells
(§14) 249669 pcDNA5/FRT/TO CD86-Rho-tag mammalian cells
(§15) 249670 pcDNA5/FRT/TO CD86-SiR-tag mammalian cells
(§16) 249671 pTol2-HuC Rho-tag-Pro30-mEGFP-NLS3x zebrafish […]
as §3, §4
(§17) regions were amplified via KOD PCR reaction using primers containing unique barcodes (NGS adaptor ligation oligos, Eurofins Genomics) analyzed by NGS sequencing (Illumina technology, Eurofins Genomics). The NGS results were analyzed using a custom-build pipeline as described previously. […]

variant 2 = target: T3, variant 2; assay: as above; assay type: binding; conditions: SD, n = 3; read-out: KD [M] (Supplementary Table 10, replicates)
T3 construct: Rho-tag background, loop2 library hit
Excerpt: as §8, §9, §10, §11, §12, §13, §14, §15, §16, §3, §4, §17

SAV2435 = target: T4, SAV2435 (Staphylococcus aureus, UniProt A0A0H3K0Y5); assay: Fluorescence polarization at constant 20 nM TMR with serial protein dilutions (0-200 uM) in 50 mM HEPES, 50 mM NaCl, pH 7.3 with BSA, 25 °C, N at least 3.; assay type: binding; conditions: SD, n = 3
T4 construct: recombinant from E. coli, N-terminal His10-TEV (pET51b), 20 kDa
Excerpt: (§18) 1 Dye and candidate selection for the development of Rho-tags. A) Chemical structure of TMR and SiR and their corresponding HaloTag Ligand (HTL) derivatives. […] B) BOILED-Egg representation generated with SwissADME for molecules shown in (A). Correlation between the topological polar surface area (TPSA) and predicted water partitioning coefficient (WlogP). Gray area–predicted low passive absorption to the gastrointestinal (GI) system and limited brain access (BBB). Egg white–high probability for GI absorption. Egg yolk–high probability for BBB permeation. Blue dot–substrate is predicted to be actively exported from the central nervous system. […]
as §3, §4, §17

BABP = target: T5, BABP (Gallus gallus, UniProt P80226); assay: as above; assay type: binding; conditions: SD, n = 3
T5 construct: gene FABP1; recombinant from E. coli, N-terminal His10-TEV (pET51b), 15 kDa
T5 sequence (P80226 2-126): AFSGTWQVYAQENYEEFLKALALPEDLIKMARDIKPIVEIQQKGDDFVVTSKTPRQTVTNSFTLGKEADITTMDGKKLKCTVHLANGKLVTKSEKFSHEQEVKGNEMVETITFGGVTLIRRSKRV
Excerpt: as §18, §3, §4, §17

cpRho-tag = assay: Fluorescence polarization with 0.5-20 nM dye (0.5 nM TMR in Figure S6 titrations) and serial protein dilutions in 50 mM HEPES, 50 mM NaCl, pH 7.3 with BSA, 25 °C, N at least 3.; assay type: binding; conditions: SD, n = 3; read-out: K D, other Rho-tag forms and JF549
Protocol: as §1, §2, §3, §4, §5, §6, §7

Rho-tag [3] = target: T6, Rho-tag (Chlorobaculum tepidum, UniProt Q8KFZ1, A66M/D121K/D126E/E36V/E70D/F125Y/F62Y/G107D/G67E/H40T/K51V/M64F/N138A/Q25R/S152V/S33N/S65D/V17Q/V87I); assay: Fluorescence polarization at constant 20 nM TMR-linked ligand with serial Rho-tag dilutions (0-200 uM), pH 7.3, 25 °C, three independent measurements.; assay type: binding; conditions: SD, n = 3
T6 construct: gene CT0179; His10-TEV, recombinant from E. coli
Protocol: (§19) Binding affinities KD was derived from fluorescence polarization experiments at constant dye concentration
(§20) (20 nM) and serial protein dilutions (0 – 200 µM). Average data and standard deviation from three
independent measurements (N = 3).
(§21) Biochemical and Spectral Characterization
(§22) Serial protein dilutions (0 – 200 μM) were prepared in activity buffer and transferred to black flat bottom low-volume 384-well plates (Greiner). Rhodamine dyes (0.5 – 20 nM) were added in activity buffer containing 1% (w/v) bovine serum albumin (BSA, Fraction V, Roth) using a 384-channel VIAFLO pipettor (Integra) at a 1:1 mixing ratio.
(§23) JF 646) or fluorescence polarization (FP, all other dyes) measurements were conducted on a Spark20M microplate reader (Tecan) at 25 °C in technical triplicates. Excitation and emission settings are summarized in Method Table 5.
(§24) For data processing, technical triplicates were averaged and normalized between 0 ( i.e. free dye)
(§25) and 1 (fully bound dye). The dissociation constants KD were determined by fitting a single-site
binding model (Equation 2) to the data.
(§26) at least three independent experiments (N ≥ 3), unless otherwise mentioned.
(§27) between dyes or proteins, log 10 fold changes relative to a reference e.g., parental protein were
(§28) Y: fluorescence intensity [a.u.] or fluorescence polarization [mFP], A: min. FI / FP, B: max.
(§29) protein concentration [mol/L], h: Hill coefficient, K D: dissociation constant [mol/L].

Rho-tag [4] = target: T1, Rho-tag; assay: as above; assay type: binding; conditions: SD, n = 3; read-out: KD [µM] (Supplementary Table 4)
Protocol: as §19, §20
independent measurements (N = 3).
as §21, §22, §23, §24, §25
binding model (Equation 2) to the data.
as §26, §27, §28, §29

[5] = with 20 µM Rho-tag (TMR, JF549) or SiR-tag (SiR, JF646)

T1 sequence (Q8KFZ1 entry or part of it with the stated changes): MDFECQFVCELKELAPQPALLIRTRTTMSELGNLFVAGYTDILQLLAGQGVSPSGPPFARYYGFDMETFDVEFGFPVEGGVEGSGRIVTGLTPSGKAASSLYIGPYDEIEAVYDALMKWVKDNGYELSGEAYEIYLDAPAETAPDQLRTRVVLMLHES
T4 sequence (A0A0H3K0Y5 entry or part of it): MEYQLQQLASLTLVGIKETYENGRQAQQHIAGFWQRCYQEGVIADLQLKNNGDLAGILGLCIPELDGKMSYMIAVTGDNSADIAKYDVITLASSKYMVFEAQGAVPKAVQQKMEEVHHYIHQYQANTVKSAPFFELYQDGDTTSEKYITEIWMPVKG
T6 sequence (Q8KFZ1 entry or part of it with the stated changes): as the sequence (Q8KFZ1 entry or part of it with the stated changes) above

**Q.** With `O=C1OC2(c3ccc(N4CCC4)cc3Oc3cc(N4CCC4)ccc32)c2ccccc21` [JF549, Janelia Fluor 549 (TMR derivative)] as the compound, how does the pKd (Rho-tag [1]) read?
**A.** 8.40

**Q.** What does the source list for `O=C1OC2(c3ccc(N4CCC4)cc3Oc3cc(N4CCC4)ccc32)c2ccccc21` [JF549]?
**A.** Absolute quantum yield Φ [2]: 0.844 ± 0.008; Brightness ε × Φ [2]: 128 ± 3; Extinction coefficient ε [2]: 152 ± 22; Extinction coefficient ε ([2]; buffer): 101 ± 08 M-1cm-1 × 103; Absolute quantum yield Φ ([2]; buffer (unbound dye)): 0.842 ± 0.012; Absolute quantum yield Φ [2, 5]: 0.87 ± 0.02 and 0.871 ± 0.018; Brightness ε × Φ [2, 5]: 105 ± 4 M-1cm-1 × 103; Extinction coefficient ε [2, 5]: 121 ± 22 M-1cm-1 × 103

**Q.** Which Kd (SiR-tag) does the source give for `C[Si]1(C)c2cc(N3CCC3)ccc2C2(OC(=O)c3ccccc32)c2ccc(N3CCC3)cc21` [JF646, Janelia Fluor 646 (SiR derivative)] here?
**A.** 2e-08 M

**Q.** And the Kd (variant 2)?
**A.** 9.1e-08 M

**Q.** Which results are given for `C[Si]1(C)c2cc(N3CCC3)ccc2C2(OC(=O)c3ccccc32)c2ccc(N3CCC3)cc21` [JF646]?
**A.** Absolute quantum yield Φ [2]: 0.554 ± 0.011; Extinction coefficient ε [2]: 162 ± 12; Brightness ε × Φ ([2]; buffer): 051 ± 1 M-1cm-1 × 103; Extinction coefficient ε ([2]; buffer): 106 ± 24 M-1cm-1 × 103; Absolute quantum yield Φ ([2]; buffer (unbound dye)): 0.477 ± 0.024; Absolute quantum yield Φ [2, 5]: 0.660 ± 0.018; Extinction coefficient ε [2, 5]: 152 ± 17 M-1cm-1 × 103

**Q.** Which results are given for `CN(C)c1ccc2c(-c3ccccc3C(=O)[O-])c3ccc(N(C)C)cc3[o+]c2c1` [TMR, tetramethylrhodamine]?
**A.** pKd (SAV2435): 4.77; pKd (BABP): 4.47; Absolute quantum yield Φ ([2]; HaloTag7-bound): 0.542 ± 0.013; Brightness ε × Φ ([2]; HaloTag7-bound): 55 ± 3 M-1cm-1 × 103; Extinction coefficient ε ([2]; HaloTag7-bound): 101 ± 08 M-1cm-1 × 103; Brightness ε × Φ ([2]; buffer): 39 ± 2 M-1cm-1 × 103; Extinction coefficient ε ([2]; buffer): 089 ± 11 M-1cm-1 × 103; Absolute quantum yield Φ ([2]; buffer (unbound dye)): 0.44 ± 0.01 and 0.439 ± 0.011; Absolute quantum yield Φ [2, 5]: 0.73 ± 0.02 and 0.728 ± 0.019; Brightness ε × Φ [2, 5]: 75 ± 1 M-1cm-1 × 103; Extinction coefficient ε [2, 5]: 103 ± 21 M-1cm-1 × 103; pKd (cpRho-tag): 8.17

**Q.** With `CN(C)c1ccc2c(-c3cc(C(=O)NCCOCCOCCCCCCCl)ccc3C(=O)[O-])c3ccc(=[N+](C)C)cc-3oc2c1` [TMR-HTL, tetramethylrhodamine-6-carboxyl HaloTag Ligand] as the compound, how does the pKd (Rho-tag [3]) read?
**A.** 5.01

**Q.** For `CN(C)c1ccc2c(-c3cc(C(=O)NCCOCCOCCCCCNS(C)(=O)=O)ccc3C(=O)[O-])c3ccc(=[N+](C)C)cc-3oc2c1` [TMR-S5 (xHTL), tetramethylrhodamine-6-carboxyl exchangeable HaloTag Ligand S5], which Kd (Rho-tag [4]) is on record?
**A.** 18.8 µM

**Q.** With “tetramethylrhodamine-6-carboxyl SNAP-tag ligand BG (benzylguanine) [TMR-BG]” as the compound, how does the Kd (Rho-tag [4]) read?
**A.** 0.4 µM

**Q.** For “tetramethylrhodamine-6-carboxyl SNAP-tag ligand CP (chloropyrimidine) [TMR-CP]”, which Kd (Rho-tag [4]) is on record?
**A.** 1.9 µM
